Results on one compound are retold here after US11376233B2 (AJOU UNIVERSITY INDUSTRY-ACADEMIC COOPERATION FOUNDATION, priority 2017, dated 2022).

In series [1] the test system is catalase and SOD2. As to the kind of experiment: Tissue immunohistostaining of cochlea (spiral ganglia, auditory hair cells) in noise-induced hearing loss animal model. The series is classed as in vivo, Balb/c mice. Conditions: immunohistochemistry, spiral ganglia (apex, middle, base) and auditory hair cells in cochlea; pretreated 50 mg/kg. Here is the method: Confocal Laser Scanning Microscopes and immunostaining were performed for the morphological analysis of spiral ganglia and hair cells located in the organ of Corti in the cochlea in noise-induced hearing loss animal model of Example 1. […] The animal tissues were immobilized and embedded with paraffin to obtain tissue sections. Anti-oxidation-related protein antibodies were primarily attached to the tissue sections, fluorescent antibodies were secondarily attached thereto, and immunohistochemistry was performed to analyze the expression behavior of the anti-oxidation-related proteins. The antibodies were subjected to immunohistochemistry with the antioxidant factors, catalase (Abcam, ab1877, Cambridge, UK), SOD2 (Santa Cruz, Calif., USA), and DAPI (Invitrogen, Carlsbad, Calif.).

Series [2] deals with HEI-OC1 cells. The series is described as follows: Cytotoxicity of sarpogrelate by WST-1 analysis. The series is classed as cell-based. Conditions: 0.1, 1, 10 and 25 μM for 24 hours. Here is the method:
Auditory cell (HEI-OC1; House-Ear Institute-organ of Corti 1) lines expressing auditory genes were used, and the HEI-OC1 cells were cultured at 33° C. and under 10% CO2 in DMEM medium (Dulbecco's modified Eagle's Medium) containing a high concentration of glutamine, supplemented with 10% fetal bovine serum (FBS) and 25 U/ml of interferon gamma.
Background: Formazan colour is commonly taken as a measure of viable cells.

Series [3] has as its system HEI-OC1 cells. The series is described as follows: Cytotoxicity and apoptosis caused by H2O2, WST-1 analysis. Type of series: cell-based. As to conditions: pretreatment 0.1, 1, 10 and 25 μM for 1 hour, then 500 μM H2O2 for 24 hours. Here is the method: Auditory cell (HEI-OC1; House-Ear Institute-organ of Corti 1) lines expressing auditory genes were used, and the HEI-OC1 cells were cultured at 33° C. and under 10% CO2 in DMEM medium (Dulbecco's modified Eagle's Medium) containing a high concentration of glutamine, supplemented with 10% fetal bovine serum (FBS) and 25 U/ml of interferon gamma. A noise-induced hearing loss cell line was established through treatment with H2O2 to produce reactive oxygen species (ROS) by oxidative stress during induction of hearing loss by noise.

In series [4] the test system is catalase and SOD2. As to the kind of experiment: mRNA expression of antioxidant enzymes by quantitative real-time PCR in H2O2-treated auditory cells. Conditions: pre-treated 1, 10, 25 and 50 μM for 1 hour, 250 μM H2O2 for 24 hours. Type of series: cell-based. Here is the method: (§1) The mRNA expression was determined by quantitative real-time PCR after extraction of total RNA and synthesis of cDNA. Protein expression was observed by extracting total protein with RIPA buffer, separating proteins in the order of size by SDS-PAGE and then attaching catalase (catalase, Abcam, ab1877, Cambridge, UK)) and SOD2 (superoxide dismutase 2, Santa Cruz, Calif., USA) thereto.
(Quantitative PCR measures a nucleic acid by following its amplification.)

The subject of series [5] is catalase and SOD2. The series is described as follows: Protein expression of antioxidant enzymes by Western blotting in H2O2-treated auditory cells. The series is classed as cell-based. As to conditions: pre-treated 1, 10, 25 and 50 μM for 1 hour, 250 μM H2O2 for 24 hours. The procedure:
as §1

The test system of series [6] is platelet aggregation. Conditions: cited from earlier work.
The subject of series [7] is peripheral arterial occlusion. Conditions: rat, injection of lauric acid; cited from earlier work.
In series [8] the test system is arterial thrombosis. As to conditions: mouse vascular endothelial injury; rat polyethylene tube; cited from earlier work.
In series [9] the test system is rat vascular smooth muscles. As to conditions: in vitro; cited from earlier work.

Turning to `COc1cccc(CCc2ccccc2OCC(CN(C)C)OC(=O)CCC(=O)O)c1` (stereo not drawn) [sarpogrelate, 4-[2-(dimethylamino)-1-({2-[2-(3-methoxyphenyl)ethyl]phenoxy}methyl)ethoxy]-4-oxobutanoic acid], in [1], the “expression of SOD2” value is on record as “significantly increased” and the expression of catalase entry is listed as “significantly increased”. For the same compound, in series [2], the cytotoxicity of sarpogrelate result is “not to cause cytotoxicity”. Also, the “apoptosis of auditory cells caused by H2O2” value in series [3] is given as “inhibiting apoptosis”. In [4], the “mRNA expression of SOD2” value was “increased” and the “mRNA expression of catalase” value is “increased”. Further, in series [5], the “protein expression of SOD2” value was “increased” and the “protein expression of catalase” value is “increased”. Also, in series [6], the “platelet aggregation by collagen and secondary platelet aggregation by ADP or epinephrine” value was “inhibited”. Further, the “onset of the condition in the peripheral arterial occlusion model” value in series [7] was “inhibits the onset of the condition”. The “formation of thrombus in arterial thrombosis models” value in [8] was “inhibit the formation of thrombus”. Also, in series [9], the “contraction of vascular smooth muscles by serotonin” value is reported as “inhibiting the contraction”.
